Consider 2 compounds from US9145398B2, “Methods of treating CXCR4-expressing cancers” (University of Louisville Research Foundation, Inc., priority 2010, dated 2015).

Molecules are shown by their SMILES. “Also recorded” adds a separate entry of the source.

For one data set, the system named is 300.19 cells. Briefly: Cytotoxicity assay, propidium iodide based flow cytometry. The format is cell-based. The note with it: 50 μM test compound. On the procedure: Cytotoxicity Assay Method: To determine the potential for test compound cytotoxicity to influence cell intracellular calcium mobilization and chemotaxis, cell cytotoxicity was assessed using propidium iodide (PI) based flow cytometry. Propidium iodine is impermeable to intact cell membranes and thus its lack of intercalation into DNA (which increases PI fluorescence) is a positive indicator of cell viability. Cytotoxicity values are presented as percentage of cells staining positive for PI. Lower values of fluorescence indicate less cytotoxicity. All assays were performed a minimum of four times; error bars represent the standard deviation of the mean.

In data set [1] the target is T1, BLT1 (Homo sapiens, UniProt Q15722). Briefly: Chemotaxis assay, cells expressing BLT1, LTB4. The format is cell-based. The note with it: 50 μM test compound, LTB4-induced. The procedure:
(§1) Cells were suspended in chemotaxis buffer (RPMI 1640, 1% fetal bovine serum, 1 mM HEPES) at a concentration of 1×10^7 cells per ml. Cell chemotaxis was determined by examining the migration of the 300.19 cells in response to administration of 50 μM test compound plus an optimized concentration of CXCL12 using a chemotaxis assay that was previously described in Basu et al. (Basu et al., Critical role for polar residues in coupling leukotriene B4 binding to signal transduction in BLT1, J. Biol. Chem. (2007) Vol. 282, pp. 10005-17). 100 μL of 300.19 cells from the above cell suspension were placed in the upper chamber of a Transwell support (Corning Costar, Cambridge, Mass.) and were separated by a 5 micron filter from a bottom chamber containing 50 μM test compound plus the optimized concentration of CXCL12 in a final bottom chamber volume of 600 μl. After 3 h of incubation at 37° C. in 5% CO2, the upper chamber was removed and cells in the lower chamber were counted in a Bürker chamber. Cell counts for all samples were normalized to a CXCL12 plus DMSO control and results are reported using this normalized measure, referred to herein as the chemotaxis index. In some instances, the IC50 concentration (i.e., the concentration at which the chemotaxis index is reduced to 50% of the chemotaxis index of the CXCL12 plus DMSO control) of the test compounds was determined. All assays were performed a minimum of four times; error bars represent the standard deviation of the mean.
To examine specificity of some of the compounds for CXCR4, their activity was tested against a non-family member class A G protein-coupled receptor, BLT1. […] I-38 and I-43 inhibited BLT1-mediated chemotaxis (0.23) and (0.045) to about the same extent as CXCR4-mediated chemotaxis (0.21) and (0.064), respectively.

In a further data set the test system is TC-1 tumor cells. Type of data set: in vivo. The note with it: 5 mg/kg i.p. every day for 21 days. From the text:
Development of Animal Model for CXCR4 Dependent Cancer Metastasis in Lungs: To establish a CXCR4 dependent lung tumor metastasis model, we first screened several cancer cell lines that are known to metastasize to lungs in mice models to determine which cancer cell lines endogenously express CXCR4 receptor. The mice cell lines screened were Lewis lung carcinoma, B16F10 melanoma, and TC-1 cervical carcinoma. Mice cell lines were screened using flow cytometry-based surface receptor staining using a fluorochrome labeled antibody to mouse CXCR4 receptor. […] The TC-1 cell line was generated by transfection of murine lung squamous epithelial cells by Human pappillomavirus (HPV) oncogenes E6, E7, and activated Ras.
5 mg/kg body weight of AMD3100, I-28, I-36, or I-38 were also injected at the same dose intra-peritoneal (i.p.) every day for 21 days starting from the day before the tumor cell injection. Mice were sacrificed and lungs were perfused and collected on day 21 post tumor challenge. Lungs were stored in formalin for 16 hrs and then transferred into 70% ethanol until the lung lobes became lucid. All five lung lobes were separated. Tumors were counted using a magnifying glass or a microscope. Tumor sizes were measured using a digital caliper. The total number of tumors counted in all five lung lobes of an individual mouse is reported as the tumor incidence. Mean tumor sizes were added together to calculate cumulative tumor size, which is reported as the tumor burden for each mouse.

The target in another data set is T2, CCR5 (Homo sapiens, UniProt P51681).
T2 construct: endogenous in cells; host or cells: THP-1 cells
T2 sequence (P51681 whole entry): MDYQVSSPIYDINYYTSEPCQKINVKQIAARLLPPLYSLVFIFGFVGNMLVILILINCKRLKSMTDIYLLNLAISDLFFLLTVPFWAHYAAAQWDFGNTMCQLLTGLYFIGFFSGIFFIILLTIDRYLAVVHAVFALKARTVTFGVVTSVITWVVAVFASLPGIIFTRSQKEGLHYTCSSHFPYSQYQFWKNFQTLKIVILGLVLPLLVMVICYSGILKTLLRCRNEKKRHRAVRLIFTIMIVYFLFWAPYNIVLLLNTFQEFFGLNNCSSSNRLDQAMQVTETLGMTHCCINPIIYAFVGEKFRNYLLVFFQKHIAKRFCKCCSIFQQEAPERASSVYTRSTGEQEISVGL
The data set is described as follows: RANTES-mediated chemotaxis of THP-1 cells. The format is cell-based. The note with it: 10 μM compound, RANTES 300 ng/ml. On the procedure: (§2) Chemotaxis assays were performed with selected compounds at a concentration of 10 μM. Chemokines signaling via CXCR4 (CXCL12 at concentration of 500 ng/ml) and CCR5 (RANTES at concentration of 300 ng/ml) were utilized to assess the receptor specificity of each compound. Each pair of columns for a lane corresponds to two separate representative experiments. The negative control samples (lanes 2 and 7) correspond to the chemotaxis without CXCL12 or RANTES. The CXCL12 and RANTES lanes are positive controls corresponding to CXCL12 alone (lanes 1 and 6) or RANTES alone (lanes 4 and 9) mediated chemotaxis. The experimental samples (lanes 3, 5, 8, and 10) correspond to CXCL12- or RANTES-mediated chemotaxis when the cells are co-incubated with I-38 or I-46.

For data set [2], the target named is T3, hCXCR4-GFP (Homo sapiens, UniProt P61073). Briefly: Chemotaxis assay, hCXCR4-GFP expressing 300.19 cells, CXCL12. Type of data set: cell-based. Particulars: hCXCR4-GFP 300.19 cells, CXCL12. On the procedure:
as §1

Data set [3] can be described thus: Test for toxicity in mice. The format is in vivo. Particulars: i.p. 5 mg/kg, then 20 or 40 mg/kg two days later; observed over 3 weeks. On the procedure:
Test for Toxicity: Mice were treated by intra-peritoneal injections of three of compounds I-28, I-36, and I-38 at the first dose of 5 mg/kg of body weight, followed by a second injection of either 20 mg/kg of body weight or 40 mg/kg of body weight two days later.

The target in data set [4] is T3, hCXCR4-GFP. Briefly: Intracellular calcium mobilization assay, hCXCR4-GFP expressing 300.19 cells, CXCL12. Type of data set: cell-based. On the set-up: IC50 of intracellular calcium mobilization, CXCR4; other: CXCL12-mediated; other: 50 μM test compound; normalized Δ fluorescence (CXCR4, intracellular calcium mobilization); other: 50 μM test compound, 60 seconds pretreatm. Particulars: 50 μM test compound. On the procedure: (§3) Intracellular Calcium Mobilization Assay Method: The intracellular calcium mobilization assay used 300.19 cells which stably expressed hCXCR4-GFP, as described previously in Pello et al. (2008). Cells were loaded with INDO-I and then pretreated with the 50 μM of the test compound for 60 seconds prior to stimulation of intracellular calcium mobilization with an optimized concentration of CXCL12. […] The value Δ florescence is the difference between (a) the fluorescence ratio from cells before exposure to CXCL12 at its optimized concentration and (b) the fluorescence ratio from cells following stimulation with the optimized concentration of CXCL12. Decreases in Δ florescence correspond to decreases in intracellular calcium mobilization, and therefore, decreased signaling. As CXCL12 concentration was optimized for each test compound, results are presented as normalized Δ florescence which is Δ fluorescence divided by the fluorescence ratio of optimized CXCL12-only stimulation. In some instances, the IC50 concentration (concentration at which intracellular calcium mobilization is reduced to 50% of the Δ fluorescence of the CXCL12 plus DMSO control) of the test compounds was determined. All assays were performed a minimum of four times; error bars represent the standard deviation of the mean.
(Calcium assays in cells follow changes in intracellular calcium, usually with a dye or a luminescent sensor.)

The target of a further data set is T4, CXCR4 (Homo sapiens, UniProt P61073).
T4 construct: endogenous in cells; host or cells: THP-1 cells (ATCC TIB-202)
T4 sequence (P61073 whole entry): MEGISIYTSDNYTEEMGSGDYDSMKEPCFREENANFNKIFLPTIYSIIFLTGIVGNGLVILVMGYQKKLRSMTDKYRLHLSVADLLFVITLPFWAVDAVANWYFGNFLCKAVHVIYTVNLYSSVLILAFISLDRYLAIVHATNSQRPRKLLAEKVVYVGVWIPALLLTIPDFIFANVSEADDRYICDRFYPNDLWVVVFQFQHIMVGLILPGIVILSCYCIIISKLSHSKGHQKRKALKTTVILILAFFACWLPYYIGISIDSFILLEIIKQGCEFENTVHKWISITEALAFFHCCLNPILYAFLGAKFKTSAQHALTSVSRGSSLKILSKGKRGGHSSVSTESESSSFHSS
Briefly: CXCL12-mediated chemotaxis of THP-1 cells. The format is cell-based. The note with it: 10 μM compound, CXCL12 500 ng/ml. The procedure:
Data are presented as a percentage of THP-1 cells (obtainable from ATCC accession number TIB-202) migrating toward a CXCL12 gradient of 500 ng/ml, normalized to the control, which was the CXCL12 only treatment. All assays were performed a minimum of four times with inhibitor concentration of 10 μM, except for I-61 and I-62 which used an inhibitor concentration of 1 μM. Error bars represent the standard deviation of the mean.
as §2

Data set [5] addresses T1, BLT1. Briefly: Intracellular calcium mobilization assay, cells expressing BLT1, LTB4. Type of data set: cell-based. Particulars: 50 μM test compound, LTB4. The procedure: as §3
At 50 μM test compound concentrations in BLT1-expressing cells, I-44 (0.040) and I-46 (0.017) inhibited intracellular calcium mobilization.

Usually IC50 stands for the midpoint of a concentration-inhibition curve. Lower therefore signals higher potency.

T3 sequence (P61073 whole entry): as above
T1 sequence (Q15722 whole entry, species assumed): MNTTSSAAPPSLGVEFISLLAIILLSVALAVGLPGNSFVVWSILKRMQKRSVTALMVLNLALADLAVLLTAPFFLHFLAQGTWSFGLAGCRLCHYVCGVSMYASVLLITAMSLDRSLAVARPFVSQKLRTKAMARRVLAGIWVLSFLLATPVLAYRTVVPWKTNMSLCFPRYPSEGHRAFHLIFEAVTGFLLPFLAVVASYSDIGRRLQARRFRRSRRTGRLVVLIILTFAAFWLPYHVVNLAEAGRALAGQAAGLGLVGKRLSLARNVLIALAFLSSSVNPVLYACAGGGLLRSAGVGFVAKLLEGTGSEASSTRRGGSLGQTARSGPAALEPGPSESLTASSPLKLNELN

`O=C(CO/N=C/c1ccccc1)N/N=C1\C(=O)N(CN(Cc2ccccc2)Cc2ccccc2)c2ccccc21` [Compound I-38, acetic acid, 2-[[(phenylmethylene)amino]oxy]-,2-[1-[[bis(phenylmethyl)amino]methyl]-1,2-dihydro-2-oxo-3H-indol-3-ylidene]hydrazide]: in the data set on 300.19 cells, the “cytotoxicity, percentage of cells staining positive for PI” value came to 7.93%. For the same compound, the “chemotaxis index (BLT1-mediated)” value on BLT1 [1] is 0.23. For the same compound, in the data set with TC-1 tumor cells, the “efficacy compared with AMD3100” value is given as “more effective than AMD3100” and the “reduction of average tumor burden” value is “more than 60%”. Further, the “TC-1 metastatic tumor incidence and burden in lungs” value in the data set with TC-1 tumor cells (versus PBS or Vehicle controls) was “reduced mice TC-1 metastatic tumor incidence and burden in lungs”. For the same compound, the “inhibition of RANTES-mediated migration of THP-1 cells” value against CCR5 is on record as “specifically inhibit CXCR4 mediated migration”. Further, at hCXCR4-GFP [2], the IC50 is 5 µM. Moreover, the “apparent toxicity (loss of body weight, signs of physiological distress)” value in [3] is “did not induce any apparent toxicity”. The “inhibition of intracellular calcium mobilization (in words)” value on hCXCR4-GFP [4] was “does not significantly inhibit intracellular calcium mobilization; also recorded: little reduction of intracellular calcium mobilization”. In addition, at CXCR4, the “inhibition of CXCL12-mediated migration of THP-1 cells” value was “specifically inhibit CXCR4 mediated migration”.
Turning to `O=C(Nc1ccc2ccc3ccc(NC(=O)c4ccccc4)nc3c2n1)c1ccccc1` [Compound I-46, N,N′-1,10-phenanthroline-2,9-diylbis-benzamide], the “inhibition of RANTES-mediated migration of THP-1 cells” value against CCR5 is reported as “inhibit migration to both chemokines”. Moreover, the “normalized Δ fluorescence (BLT1, intracellular calcium mobilization)” value at BLT1 [5] is 0.017. Besides, the “normalized Δ fluorescence (CXCR4, intracellular calcium mobilization)” value at hCXCR4-GFP [4] (60 seconds pretreatment, optimized CXCL12 (AMD3100 concentration not given)) worked out at 0.067. At CXCR4, the “inhibition of CXCL12-mediated migration of THP-1 cells” value is “inhibit migration to both chemokines”.
